Measured values taken from patent US12564638B2 (SHANGHAITECH UNIVERSITY, priority 2019, dated 2026).
Read-outs that look alike come from different tables or passages of the source.

Tests used:
[1] = test system: PC9 cells (EGFR Exon 19 del, non-small cell lung cancer cells); assay: Cell viability assay (WST/CCK8), PC9 cells; assay type: cell-based; details: Homo sapiens, PC-9, PC9 (Exon19 Del), 72 hours, read-out: IC50 (half inhibitory concentration)
From the text: The cell lines with abnormal EGFR expression used are as follows: • HCC827 cells (EGFR Exon19 del, non-small cell lung cancer cells); • PC9 cells (EGFR Exon 19 del, non-small cell lung cancer cells); • PC9BracA1 (EGFR Exon 19 del+T790M, non-small cell lung cancer cells) • H1975 (EGFR Exon T790M+L858R mutation, non-small cell lung cancer cell line) • BT474 cells (HER2 positive breast cancer cells)
All of the half inhibitory concentrations (IC50) of these compounds of the present invention were determined with WST reagent from Fuyuan Biotec Company. The specific experiment procedures are as follows: Cancer cells were planted in 96-well-plate at the density of 3 000 cells per well with 100 μL RPMI1640 completed culture medium. In the next day, compounds with indicated concentrations were added to the cells, DMSO was used as the negative control and the EGFR TKIs were used to treat cells as the positive groups. After 72 hours drug treatment, cell viability was measured by using the WST reagent following the instructions.
The cells were treated with the gradient concentration of these compounds (the maximum concentration: 10 μM; 3-fold dilution ratio, 10 concentration gradients) for 72 hours and then incubated with the WST (CCK8) reagent to determine the cell viability.

[2] = test system: HCC827 cells (EGFR Exon19 del, non-small cell lung cancer cells); assay: Cell viability assay (WST/CCK8), HCC827 cells; assay type: cell-based; details: Homo sapiens, HCC827, 72 h, HCC827 (Exon19 Del), 72 hours, read-out: IC50 (half inhibitory concentration)
Summary of the method: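 Plated 3 000 cells/well in complete RPMI1640 the day before dosing; controls were DMSO (negative) and EGFR TKIs (positive).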

[3] = Table 4, gefitinib-based compounds, WST
[4] = Table 4, gefitinib and sapitinib-based compounds, WST

| Compound | IC50 [1, 3] | IC50 [2, 4] | IC50 ([1]; WST (CCK8)) | IC50 ([2]; WST (CCK8)) |
| --- | --- | --- | --- | --- |
| COc1cc2ncnc(Nc3ccc(F)c(Cl)c3)c2cc1OCCCN1CCN(C(=O)COCCSc2cccc3c2C(=O)N(C2CCC(=O)NC2=O)C3=O)CC1 (stereo not shown) [SIAIS184168, 4-((2-(2-(4-(3-((4-((3-chloro-4-fluorophenyl)amino)-7-methoxyquinazolin-6-yl)oxy)propyl)piperazin-1-yl)-2-oxoethoxy)ethyl)thio)-2-(2,6-dioxopiperidin-3-yl)isoindoline-1,3-dione] | 317 nM | 43 nM |  |  |
| COc1cc2ncnc(Nc3ccc(F)c(Cl)c3)c2cc1OCCCN1CCN(C(=O)COCCOCCOCCSc2cccc3c2C(=O)N(C2CCC(=O)NC2=O)C3=O)CC1 (stereo not shown) [SIAIS184169, 4-((2-(2-(2-(2-(4-(3-((4-((3-chloro-4-fluorophenyl)amino)-7-methoxyquinazolin-6-yl)oxy)propyl)piperazin-1-yl)-2-oxoethoxy)ethoxy)ethoxy)ethyl)thio)-2-(2,6-dioxopiperidin-3-yl)isoindoline-1,3-dione] | 318 nM | 22 nM |  |  |
| COc1cc2ncnc(Nc3ccc(F)c(Cl)c3)c2cc1NC(=O)/C=C/CN1CCN(C(=O)CSc2cccc3c2CN(C2CCC(=O)NC2=O)C3=O)CC1 (stereo not shown) [SIAIS219185, (E)-N-(4-((3-chloro-4-fluorophenyl)amino)-7-methoxyquinazolin-6-yl)-4-(4-(2-((2-(2,6-dioxopiperidin-3-yl)-1-oxoisoindolin-4-yl)thio)acetyl)piperazin-1-yl)but-2-enamide] |  |  | 23.3 nM | 15.7 nM |
| COc1cc2ncnc(Nc3ccc(F)c(Cl)c3)c2cc1NC(=O)/C=C/CN1CCN(C(=O)CCSc2cccc3c2CN(C2CCC(=O)NC2=O)C3=O)CC1 (stereo not shown) [SIAIS219186, (E)-N-(4-((3-chloro-4-fluorophenyl)amino)-7-methoxyquinazolin-6-yl)-4-(4-(3-((2-(2,6-dioxopiperidin-3-yl)-1-oxoisoindolin-4-yl)thio)propanoyl)piperazin-1-yl)but-2-enamide] |  |  | 21.7 nM | 6 nM |
| COc1cc2ncnc(Nc3ccc(F)c(Cl)c3)c2cc1NC(=O)/C=C/CN1CCN(C(=O)CCCSc2cccc3c2CN(C2CCC(=O)NC2=O)C3=O)CC1 (stereo not shown) [SIAIS219187, (E)-N-(4-((3-chloro-4-fluorophenyl)amino)-7-methoxyquinazolin-6-yl)-4-(4-(4-((2-(2,6-dioxopiperidin-3-yl)-1-oxoisoindolin-4-yl)thio)butanoyl)piperazin-1-yl)but-2-enamide] |  |  | 33.3 nM | 6.7 nM |
| COc1cc2ncnc(Nc3ccc(F)c(Cl)c3)c2cc1NC(=O)/C=C/CN1CCN(C(=O)CCCCSc2cccc3c2CN(C2CCC(=O)NC2=O)C3=O)CC1 (stereo not shown) [SIAIS219188, (E)-N-(4-((3-chloro-4-fluorophenyl)amino)-7-methoxyquinazolin-6-yl)-4-(4-(5-((2-(2,6-dioxopiperidin-3-yl)-1-oxoisoindolin-4-yl)thio)pentanoyl)piperazin-1-yl)but-2-enamide] |  |  | 25.1 nM | 3.1 nM |
| COc1cc2ncnc(Nc3ccc(F)c(Cl)c3)c2cc1NC(=O)/C=C/CN1CCN(C(=O)CCCCCSc2cccc3c2CN(C2CCC(=O)NC2=O)C3=O)CC1 (stereo not shown) [SIAIS219189, (E)-N-(4-((3-chloro-4-fluorophenyl)amino)-7-methoxyquinazolin-6-yl)-4-(4-(6-((2-(2,6-dioxopiperidin-3-yl)-1-oxoisoindolin-4-yl)thio)hexanoyl)piperazin-1-yl)but-2-enamide] |  |  | 9.2 nM | 3.8 nM |
| COc1cc2ncnc(Nc3ccc(F)c(Cl)c3)c2cc1NC(=O)/C=C/CN1CCN(C(=O)CCCCCCSc2cccc3c2CN(C2CCC(=O)NC2=O)C3=O)CC1 (stereo not shown) [SIAIS219190, (E)-N-(4-((3-chloro-4-fluorophenyl)amino)-7-methoxyquinazolin-6-yl)-4-(4-(7-((2-(2,6-dioxopiperidin-3-yl)-1-oxoisoindolin-4-yl)thio)heptanoyl)piperazin-1-yl)but-2-enamide] |  |  | 7.2 nM | 18.6 nM |
